# From patent US8569268B2, “Acrylate/methacrylate-based diblock copolymer/anthranilic diamide compositions for propagule coating” (E I du Pont de Nemours and Company, priority 2010, dated 2013)
# Test system: Spodoptera frugiperda
# Experiment: Laboratory test with 2nd instar larva of Spodoptera frugiperda on maize leaves
# Type: in vivo
structure (smiles),measurement,value
"CNC(=O)c1cc(Cl)cc(C)c1NC(=O)c1cc(Br)nn1-c1ncccc1Cl [Compound 2, 3-bromo-N-[4-chloro-2-methyl-6-[(methylamino)carbonyl]phenyl]-1-(3-chloro-2-pyridinyl)-1H-pyrazole-5-carboxamide]",concentration needed to achieve 100% mortality within 72 h,0.037 micrograms per g of tissue
same,concentration resulting in 50% mortality within 72 h,0.033 micrograms per g of leaf tissu
